Experimental data reported in patent publication US8450352B2, “Thiazole compounds and their use for inhibiting phosphodiesterase 4, TNF-α, and IL-4” (Otsuka Pharmaceutical Co., Ltd., priority 2004, dated 2013).
Where a name gives a salt, the structure may show the parent alone.

target: T1, human PDE4D (HPDE4D) (Homo sapiens, UniProt Q08499); assay: Confirmatory test for phosphodiesterase (PDE) 4 inhibitory activity; assay type: biochemical; settings: concentration that inhibits the PDE4 activity by 50%; PDE4D enzyme solution from transfected COS-7 cells, [3H]cAMP substrate
T1 construct: made in house; host or cells: COS-7 cells (African green monkey kidney), transient transfection; soluble supernatant of the homogenate
T1 sequence (Q08499 whole entry): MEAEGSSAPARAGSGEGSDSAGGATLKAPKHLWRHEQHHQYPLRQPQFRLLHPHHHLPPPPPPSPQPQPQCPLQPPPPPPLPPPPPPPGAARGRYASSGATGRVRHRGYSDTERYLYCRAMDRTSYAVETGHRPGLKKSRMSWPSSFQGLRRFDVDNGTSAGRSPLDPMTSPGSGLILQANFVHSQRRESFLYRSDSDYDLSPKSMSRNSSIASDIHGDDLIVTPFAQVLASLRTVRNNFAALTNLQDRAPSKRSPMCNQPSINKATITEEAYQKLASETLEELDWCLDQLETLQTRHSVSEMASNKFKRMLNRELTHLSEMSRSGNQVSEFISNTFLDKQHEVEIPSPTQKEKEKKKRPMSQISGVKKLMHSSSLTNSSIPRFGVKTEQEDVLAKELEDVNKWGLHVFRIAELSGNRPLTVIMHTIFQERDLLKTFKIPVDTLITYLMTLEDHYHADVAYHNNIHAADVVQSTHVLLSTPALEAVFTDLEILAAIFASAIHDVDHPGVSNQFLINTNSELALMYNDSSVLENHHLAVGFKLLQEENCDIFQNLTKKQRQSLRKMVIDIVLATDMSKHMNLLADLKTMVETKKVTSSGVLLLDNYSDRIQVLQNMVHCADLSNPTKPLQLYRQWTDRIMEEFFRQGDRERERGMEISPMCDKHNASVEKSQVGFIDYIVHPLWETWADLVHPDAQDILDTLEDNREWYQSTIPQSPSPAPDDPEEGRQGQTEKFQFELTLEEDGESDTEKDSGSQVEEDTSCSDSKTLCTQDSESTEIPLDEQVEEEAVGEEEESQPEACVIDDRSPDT
From the text: Confirmatory Test for Phosphodiesterase (PDE) 4 Inhibitory Activity
(1) Mass Preparation of Plasmids
Plasmids containing genes coding for human PDE4D (HPDE4D) (stored in Otsuka America Pharmaceutical, Inc., Maryland Research Laboratories) were transformed into Escherichia coli, and mass cultured. The plasmids were then purified using EndoFree™ Plasmid Mix Kit (Qiagen).
(2) Mass expression and purification of PDE4D
African green monkey kidney-derived COS-7 cells (RCB 0539) were subcultured in a DMEM medium containing 100 units/ml penicillin, […] streptomycin and 10% FBS. The plasmids prepared in (1) were transfected into the cells, using LipofectAMINE™ 2000 Reagent (hereinafter referred to as “LF2000”, a product of Invitroge), according to the attached protocol. For comparison, pcDNA3.1 was transfected as a control vector. The COS-7 cells were inoculated into 10 cm diameter petri dishes on the day before transfection, so that the cells reached 90% confluence on the day of transfection. Twelve micrograms of the plasmids diluted with 0.9 ml of OPTI-MEM I (Invitrogen) (a plasmid solution; Solution A) and 30 μl of LF2000 diluted with 0.9 ml of OPTI-MEM I (a LF2000 solution; Solution B) were prepared per petri dish, and allowed to stand at room temperature for 5 minutes. Solutions A and B were then mixed together and allowed to stand at room temperature for 20 minutes. The mixture was added to the cultured cells, and incubation was performed overnight at 37° C. in an atmosphere of 5% CO2. The culture medium was changed on the following day, incubation was continued overnight, and the cells were collected by the following procedure. First, the cells were washed once with PBS (Sigma), and 2 ml of Trypsin-EDTA solution (Sigma) was added per petri dish, spread over the dish and removed. The cells were then allowed to stand at 37° C. for 2 to 3 minutes, separated from the petri dish and suspended in a medium. The suspension was placed in a centrifuge tube, and centrifuged at 200×g and 4° C. for 5 minutes. The supernatant was then removed. The cells were further washed with PBS and stored at −80° C. A KHEM buffer (50 mM Hepes, 50 mM KCl, 10 mM EGTA, 1.92 mM MgCl2, pH 7.2) containing 1 mM DTT, 40 μg/ml PMST, 156 μg/ml benzamidine, 1 μg/ml apotinin, 1 μg/ml leupeptin, 1 μg/ml pepstatin A, and 1 μg/ml antipain was added to the cells that had been stored, and the resulting mixture was placed in a glass homogenizer and homogenized on ice. The cell suspension was centrifuged at 100×g and 4° C. for 5 minutes, and the supernatant was further centrifuged at 100,000×g for 1 hour. Thereafter, the supernatant was dispensed into new tubes as a PDE4D enzyme solution, and stored in an ultra-low-temperature freezer. The protein concentration of the PDE4D enzyme solution was then measured.
(3) Determination of Dilution Factor of PDE4D Enzyme Solution
The PDE4D enzyme solution prepared in (2) was diluted 10-, 25-, 50-, 100-, 200-, 400- and 800-fold with 20 mM Tris-HCl (pH 7.4), and the PDE4D activities of the diluted enzyme solutions were measured by the method described in (4) to determine the optimum dilution factor to obtain a PDE4D enzyme solution in which degraded cAMP constituted 10 to 30% of the total cAMP.
(4) Measurement of PDE4D Inhibitory Activity
The necessary amount of each test substance was weighed out and dissolved in 100% DMSO to a concentration of 10 mM. The resulting solutions were stored in a freezer as test substance stock solutions. Before the inhibitory activity measurement, the stock solutions were melted, diluted 2-fold with 100% DMSO to a concentration of 5 mM, and further diluted with 100% DMSO to obtain test substance solutions with 10 graded concentrations. Each test substance solution was added to a 1.2 ml tube containing 23 μl of 20 mM Tris-HCl (pH 7.4). […]

IC50 [nM] | Structure (SMILES)
0.2 | CCOc1ccc(-c2nc(CCC(=O)c3ncccc3OCC)cs2)cc1OCC [Example 87, 3-[2-(3,4-diethoxyphenyl)thiazole-4-yl]-1-(3-ethoxypyridine-2-yl)-1-propanone]
6.6 | CCOc1ccc(-c2nc(CCC(O)c3ncccc3OC)cs2)cc1OCC (centres unmarked) [Example 187, 3-[2-(3,4-diethoxyphenyl)thiazole-4-yl]-1-(3-methoxypyridine-2-yl)-1-propanol dihydrochloride]

system: not given; assay: not given; settings: not given

melting point [°C] | Structure (SMILES)
188 to 189 | CCOc1ccc(-c2nc(/C=C/C(=O)c3c(O)cc(O)cc3O)cs2)cc1OCC [Example 9]
227.4 to 228 | COc1ccc(-c2nc(/C=C/C(=O)c3ccc(O)c(C(=O)O)c3)cs2)cc1OC [Example 39]
162 to 165 | COc1ccc(-c2nc(/C=C/C(=O)c3ccc(O)c(O)c3)cs2)cc1OC (as salt: hydrochloride) [Example 7]
129 to 130 | CCOc1ccc(-c2nc(/C=C/C(=O)c3ccccc3)cs2)cc1OCC [Example 14]
138 to 139 | CCOc1ccc(-c2nc(/C=C/C(=O)c3ccc(Cl)c(Cl)c3)cs2)cc1OCC [Example 29]
165 to 168 | CCOc1ccc(-c2nc(/C=C/C(=O)c3cc(Cl)c(N)c(Cl)c3)cs2)cc1OCC (as salt: hydrochloride) [Example 12]
195 to 196 | CCOc1ccc(-c2nc(/C=C/C(=O)c3ccc(O)c(C(=O)O)c3)cs2)cc1OCC [Example 19]
155 to 156 | CCOc1ccc(-c2nc(/C=C/C(=O)c3cc(OC)c(OC)c(OC)c3)cs2)cc1OCC [Example 11]
90.2 to 92 | CCOc1ccc(-c2nc(CCC(=O)c3cc(Cl)ccc3OC)cs2)cc1OCC [Example 108]
128 to 128.5 | COc1ccc(-c2nc(CCC(=O)c3ccc(OC(C)=O)c(OC(C)=O)c3)cs2)cc1OC [Example 94]
144.5 to 146 | CCOc1ccc(-c2nc(/C=C/C(=O)c3cccc(O)c3)cs2)cc1OCC [Example 16]
82.5 to 83.5 | CCOc1ccc(-c2nc(CCC(=O)c3ccccc3F)cs2)cc1OCC [Example 101]
131 to 133 | CCOc1ccc(-c2nc(/C=C/C(=O)c3ccc(Cl)cc3)cs2)cc1OCC [Example 21]
141.3 to 142.4 | CCOc1ccc(C(=O)CCc2csc(-c3ccc(OC)c(OC)c3)n2)cc1OCC [Example 93]
161.3 to 162.8 | CCOc1ccc(-c2nc(/C=C/C(=O)c3ccc(O)c(C(=O)OC)c3)cs2)cc1OCC [Example 20]
125 to 126 | CCOc1ccc(-c2nc(/C=C/C(=O)c3cccc([N+](=O)[O-])c3)cs2)cc1OCC [Example 24]
130 to 135 | CCOc1ccc(C(=O)/C=C/c2csc(-c3ccc(OCC)c(OCC)c3)n2)cc1 [Example 31]
128 to 129 | CCOc1ccc(-c2nc(/C=C/C(=O)c3ccc(C(C)=O)cc3)cs2)cc1OCC [Example 23]
91.7 to 92.9 | CCOc1ccc(-c2nc(CCC(=O)c3ccccc3C(=O)OC)cs2)cc1OCC [Example 240, methyl 2-{3-[2-(3,4-diethoxyphenyl)thiazole-4-yl]propionyl}benzoate]
79 to 82 | CCOc1cc(-c2nc(/C=C/C(=O)c3cc(OC)ccc3OC)cs2)ccc1OC [Example 40]
153.2 to 153.8 | CCOc1ccc(-c2nc(CCC(=O)c3ccc(O)c(O)c3)cs2)cc1OCC (as salt: hydrochloride) [Example 92]
164 to 167 | CCOc1ccc(-c2nc(/C=C/C(=O)c3ccc(C#N)cc3)cs2)cc1OCC [Example 18]

melting point [°C] | Structure (SMILES)
97.8 to 98.5 | CCOc1ccc(-c2nc(CCC(=O)c3cc(OC)ccc3OC)cs2)cc1OCC [Example 95]
113.7 to 114.9 | CCOc1ccc(-c2nc(CCC(=O)c3ccccc3O)cs2)cc1OCC [Example 98]
64.4 to 65.1 | CCOc1ccc(-c2nc(CCC(=O)c3ccccc3Cl)cs2)cc1OCC [Example 104]
66.1 to 67.9 | CCOc1ccc(-c2nc(CCC(=O)c3ccccc3Br)cs2)cc1OCC [Example 103]
139 to 140 | CCOc1ccc(-c2nc(/C=C/C(=O)c3ccc(OC(C)=O)c(OC(C)=O)c3)cs2)cc1OCC [Example 8]
125 to 127 | CCOc1ccc(-c2nc(/C=C/C(=O)c3ccc([N+](=O)[O-])cc3)cs2)cc1OCC [Example 32]
124 to 125.5 | CCOc1ccc(-c2nc(/C=C/C(=O)c3ccc(C)cc3)cs2)cc1OCC [Example 26]
174 to 177 | COc1ccc(-c2nc(/C=C/C(=O)c3ccc(O)cc3)cs2)cc1OC [Example 37]
150 to 151 | CCOc1ccc(-c2nc(/C=C/C(=O)c3ccc(C(=O)OC)cc3)cs2)cc1OCC [Example 17]
133 to 134 | CCOc1ccc(-c2nc(/C=C/C(=O)c3ccc(O)cc3)cs2)cc1OCC [Example 10]
93.1 to 94.4 | CCOc1ccc(-c2nc(CCC(=O)c3nccs3)cs2)cc1OCC [Example 90, 3-[2-(3,4-diethoxyphenyl)thiazole-4-yl]-1-thiazole-2-yl-1-propanone]
148 to 150 | CCOc1ccc(-c2nc(/C=C/C(=O)c3ccc(N)cc3)cs2)cc1OCC [Example 30]
141.3 to 142.4 | CCOc1ccc(CC(=O)Cc2csc(-c3ccc(OC)c(OC)c3)n2)cc1OCC [Example 243, 3-[2-(3,4-dimethoxyphenyl)thiazole-4-yl]-1-(3,4-diethoxyphenyl)propanone]
199.5 to 201.5 | CCOc1ccc(-c2nc(/C=C/C(=O)c3ccc(NC(C)=O)cc3)cs2)cc1OCC [Example 28]
126 to 127 | CCOc1ccc(-c2nc(/C=C/C(=O)c3ccccc3O)cs2)cc1OCC (as salt: hydrobromid) [Example 15]
116 to 121 | CCOc1ccc(-c2nc(/C=C/C(=O)c3ccc(F)cc3)cs2)cc1OCC [Example 25]
132 to 133 | CCOc1ccc(-c2nc(/C=C/C(=O)c3ccccc3C(=O)OC)cs2)cc1OCC [Example 33]
78.2 to 79 | CCOc1ccc(-c2nc(CCC(O)c3ccccc3OC)cs2)cc1OCC (centres unmarked) [Example 186, 3-[2-(3,4-diethoxyphenyl)thiazole-4-yl]-1-(2-methoxyphenyl)-1-propanol]
164 to 168 | COc1ccc(-c2nc(/C=C/C(=O)c3cc(O)cc(O)c3)cs2)cc1OC (as salt: hydrochloride) [Example 6]
152 to 153 | CCOc1ccc(-c2nc(/C=C/C(=O)c3ccc(OC)c(OC)c3)cs2)cc1OCC [Example 13]
142 to 143 | CCOc1ccc(-c2nc(/C=C/C(=O)c3ccccc3[N+](=O)[O-])cs2)cc1OCC [Example 27]
228 to 230 | COc1ccc(-c2nc(/C=C/C(=O)c3cc(C(C)(C)C)c(O)c(C(C)(C)C)c3)cs2)cc1OC [Example 22]

Structure (SMILES) | melting point [°C]
COc1ccc(-c2nc(CC(=O)Cc3ccc(OC(C)=O)c(OC(C)=O)c3)cs2)cc1OC [Example 242, 3-[2-(3,4-dimethoxyphenyl)thiazole-4-yl]-1-(3,4-diacetoxyphenyl)propanone] | 128 to 128.5
